Laboratory results taken from US6355639B1, “Reverse prenyl compounds as immunosuppressants” (Sloan-Kettering Institute for Cancer Research, priority 1997, dated 2002).
“And” between values parts separate entries of the source, which are not always exact repeats. Equal entries are not always repeated. Where two headings read alike, the source gives them in different places. Marks after values point to notes of the source that are not given here. Values belong to the molecule of their own block, whether it stands above or below them.

How the values were obtained:
[1] = system: peripheral blood lymphocytes stimulated by PHA; assay: PHA stimulation assay, [3H]TdR incorporation; format: cell-based, human; details: Reverse Prenyl Compounds, read-out: IC50 PHA Assays
Procedure: (§1) Fresh peripheral blood lymphocytes isolated by Ficoll-Hypaque density centrifugation are stimulated by PHA or the OKT3 antibody (anti-CD3), which stimulates via interaction with CD3. Stimulation is measured by incorporation of radioactive thymidine [(^3H)TdR] into proliferating cells, with an unhibited control signal of 48,000-75,000 cpm. IC50 values are estimated from inhibitions of proliferation observed at various drug concentrations.

[2] = system: peripheral blood lymphocytes stimulated by OKT3 antibody (anti-CD3); assay: OKT3 stimulation assay, [3H]TdR incorporation; format: cell-based, human; details: Reverse Prenyl Compounds, read-out: IC50 OKT3 Assays
Procedure: as §1

[3] = system: Human Peripheral Blood Lymphocytes; assay: Thymidine incorporation assay: activation of human peripheral blood lymphocytes by phytohemagglutinin; format: cell-based; details: drug 30 min, then 10 μg/ml PHA 24 hrs, [3H]Thd incorporation
Procedure: Inhibitory Effects of Ardeemin Compounds on the Activation of Human Peripheral Blood Lymphocytes by Phytohemagglutinin
Thymidine Incorporation Assay:
PBL were exposed to various concentrations of drugs for 30 min and then added 10 μg/ml PHA for 24 hrs. [^3H]Thd (1 μCi/well) was then added and incubated for 1 hr. The reaction is stopped by adding 10% TCA for analysis of [^3H]Tdk incorporation into DNA.

B6D2F1 mice = assay: Cumulative toxicity in B6D2F1 mice
Procedure: FIG. 2 illustrates the cumulative toxicity in B6D2F1 mice treated with multidrug resistance reversal agents (mg/kg,i.p.,QD). Each group consists of five mice. […] Cumulated doses in the series shown in panels A, B and C were 712.5, 1700 and 3950 mg/kg×day, respectively.

[4] = system: heterotopic cardiac transplants; assay: Heterotopic mouse cardiac transplants (prospective example); format: in vivo, mice; details: 40 mg/kg-1 mg/25 g per day, i.v., 7 or 14 days, Alzet pump
Procedure: 5-N-Acetylardeemin and 5-N-acetyl-8-desmethylardeemin are individually administered to mice which have received heterotopic cardiac transplants at a range of concentrations (40 mg/kg-1 mg/25 g per day), i.v., for seven days or fourteen days using an Alzet pump. Each compound is dissolved in DMSO at high concentration prior to administration. Control animals receive the same volume of carrier solvent (40 μL DMSO).

P388/0 Tumors = format: in vivo; set-up: SURVIVAL TIME of individual mice (No. 1-6): unit: days
Procedure: Survival times were determined for B6D2F1 mice inoculated with P388/0 cells, 10^6 cells/mouse, i.p. at Day 0. The mice were treated by adriamycin and 5-N-acetylardeemin, i.p., daily for four days. Survival times were recorded based on the time of death with the following scheme of decimal values: 8AM (0.0), 1PM (0.25), 5PM (0.5). An in vivo immunosuppressive effect of the ardeemin derivatives is found which persistently […] the lifespan of P388 tumor-bearing B6D2F1 mice in a dose-dependent manner.

[5] = system: inflammation induced by carrageene; assay: Inflammation induced by carrageene in mice pedis; format: in vivo
[6] = system: inflammation induced by carrageene; assay: Inflammation induced by carrageene in mice pedis; format: in vivo; remark: listed apart in the source
Procedure: FIG. 3 illustrates the delayed treatment of inflammation induced by carrageene with aspirin, N-acetylardeemin and hydrocortisone. (●) Control; (▪) Aspirin (500 mg/kg, p.o.); (Δ) N-acetylardeemin (100 mg/kg, i.p.); (x) Hydrocortisone cream.
FIG. 4 illustrates the treatment of inflammation induced by carrageene with aspirin, N-acetylardeemin and hydrocortisone. (●) Control; (▪) Aspirin (500 mg/kg, p.o.); (Δ) N-acetylardeemin (100 mg/kg, i.p.); (x) Hydrocortisone cream.

[7] = system: peripheral blood lymphocytes stimulated by PHA; details: Classical immunosuppressant (historical data); read-out: IC50 PHA Assays; cited from earlier work
[8] = system: peripheral blood lymphocytes stimulated by OKT3 antibody (anti-CD3); details: Classical immunosuppressant (historical data); read-out: IC50 OKT3 Assays; cited from earlier work
[9] = 5NAcArd 3.33 mg/kg i.p. daily Day 1-4
[10] = 5NAcArd 10 mg/kg i.p. daily Day 1-4
[11] = 5NAcArd 30 mg/kg i.p. daily Day 1-4
[12] = Adr 0.333 mg/kg i.p. daily Day 1-4
[13] = Adr 1.0 mg/kg i.p. daily Day 1-4
[14] = Adr 3.0 mg/kg i.p. daily Day 1-4

IC50 [1]: 9970 ± 1490 nM | IC50 [2]: 4560 nM
Molecule: 5-N-Ac-F3-Ardeemin

IC50 ([1]; listed as 8-Desmethylardeemin): 2260 ± 60 nM | IC50 [3]: 2260 nM | IC50 ([2]; listed as 8-Desmethylardeemin): 2230 ± 160 nM | IC50 ([2]; listed as 8-desmethylardeemin): 1200 to 2300 nM
Molecule: 8-demethylardeemin

Molecule: C=CC(C)(C)[C@@]12C[C@H]3c4nc5ccccc5c(=O)n4CC(=O)N3[C@@H]1N(C(C)=O)c1ccccc12 [5-N-acetyl-8-demethylardeemin, 5-N-acetyl-8-desmethylardeemin]
IC50 ([1]; listed as 5-N-Ac-8-desmethylardeemin): 1200 ± 20 nM | toxicity to mice (B6D2F1 mice; FIG. 2, i.p., QD): very nontoxic | toxicity to mice (B6D2F1 mice; sequential 100 mg/kg i.p. QDx6, 150 mg/kg QDx8, 200 mg/kg QDx3, 300 mg/kg QDx3): non-toxic | average body weight decreases (B6D2F1 mice; up to 250 mg/kg, Qdx3): less than 0.5 g | IC50 [3]: 980 nM | resistance of organ transplant to graft rejection vs control mice [4]: more resistant to graft rejection | IC50 [2]: 1130 ± 130 nM

Molecule: C=CC(C)(C)[C@@]12C[C@H]3c4nc5ccccc5c(=O)n4[C@H](C)C(=O)N3[C@@H]1N(C(C)=O)c1ccccc12 [5-N-acetylardeemin]
IC50 [1]: 7960 nM | % ILS (% increase in lifespan) (P388/0 Tumors; [9]): −2% | AWC D 4 (P388/0 Tumors; [9]): +0.9 Gm | AWC D 6 (P388/0 Tumors; [9]): +3.3 Gm | MST (mean survival time) (P388/0 Tumors; [9]): 7.25 | SURVIVAL TIME of individual mice (No. 1-6) (P388/0 Tumors; [9]): 8.0 (2×) and 6.0 and 7.0 | % ILS (% increase in lifespan) (P388/0 Tumors; [10]): −10% | AWC D 4 (P388/0 Tumors; [10]): +1.7 Gm | AWC D 6 (P388/0 Tumors; [10]): +4.8 Gm | MST (mean survival time) (P388/0 Tumors; [10]): 6.67 | SURVIVAL TIME of individual mice (No. 1-6) (P388/0 Tumors; [10]): 7.5 and 6.0 and 6.5 | % ILS (% increase in lifespan) (P388/0 Tumors; [11]): −16% | AWC D 4 (P388/0 Tumors; [11]): +1.6 Gm | AWC D 6 (P388/0 Tumors; [11]): +3.8 Gm | MST (mean survival time) (P388/0 Tumors; [11]): 6.25 | SURVIVAL TIME of individual mice (No. 1-6) (P388/0 Tumors; [11]): 6.0 and 6.5 | toxicity to mice (B6D2F1 mice; FIG. 2, i.p., QD): relatively nontoxic | IC50 [3]: 1910 nM | Average Pedis Area, Hours: 0 ([5]; 50 mg/kg i.p.): 6.8 mm^2 | Average Pedis Area, Hours: 12 ([5]; 50 mg/kg i.p.): 12.4 mm^2 | Average Pedis Area, Hours: 24 ([5]; 50 mg/kg i.p.): 12.7 mm^2 | Average Pedis Area, Hours: 48 ([5]; 50 mg/kg i.p.): 11.3* mm^2 | Average Pedis Area, Hours: 60 ([5]; 50 mg/kg i.p.): 15.6 mm^2 | Toxicity Death ([5]; 50 mg/kg i.p.): 0/5 | Average Pedis Area, Hours: 12 ([5]; 100 mg/kg i.p.): 9.7*** mm^2 | Average Pedis Area, Hours: 24 ([5]; 100 mg/kg i.p.): 9.0*** mm^2 | Average Pedis Area, Hours: 48 ([5]; 100 mg/kg i.p.): 8.6*** mm^2 | resistance of organ transplant to graft rejection vs control mice [4]: more resistant to graft rejection | IC50 [2]: 31900 nM | Average Pedis Area, Hours: 0 ([6]; 100 mg/kg i.p.): 7.1 mm^2 | Average Pedis Area, Hours: 60 ([6]; 100 mg/kg i.p.): 10.2*** mm^2 | Toxicity Death ([6]; 100 mg/kg i.p.): 0/5

Molecule: S=c1nc[nH]c2nc[nH]c12 [6-MP]
IC50 [7]: 44 ± 17 nM | IC50 [8]: 136 ± 19 nM

Molecule: COc1cccc2c1C(=O)c1c(O)c3c(c(O)c1C2=O)C[C@@](O)(C(=O)CO)C[C@@H]3O[C@H]1C[C@H](N)[C@H](O)[C@H](C)O1 [Adr, adriamycin, reference compound]
% ILS (% increase in lifespan) (P388/0 Tumors; [12]): 85% | MST (mean survival time) (P388/0 Tumors; [12]): 13.75 | % ILS (% increase in lifespan) (P388/0 Tumors; [13]): 129% | MST (mean survival time) (P388/0 Tumors; [13]): 17.0 | % ILS (% increase in lifespan) (P388/0 Tumors; [14]): 145% | MST (mean survival time) (P388/0 Tumors; [14]): 18.19

Molecule: CC(=O)Oc1ccccc1C(=O)O [Aspirin]
Average Pedis Area, Hours: 0 ([5]; 250 mg/kg p.o.): 6.9 mm^2 | Average Pedis Area, Hours: 12 ([5]; 250 mg/kg p.o.): 12.5 mm^2 | Average Pedis Area, Hours: 24 ([5]; 250 mg/kg p.o.): 12.3 mm^2 | Average Pedis Area, Hours: 48 ([5]; 250 mg/kg p.o.): 13.2 mm^2 | Average Pedis Area, Hours: 60 ([5]; 250 mg/kg p.o.): 15.4** mm^2 | Toxicity Death ([5]; 250 mg/kg p.o.): 0/5 | Average Pedis Area, Hours: 12 ([5]; 500 mg/kg p.o.): 9.9** mm^2 | Average Pedis Area, Hours: 24 ([5]; 500 mg/kg p.o.): 10.6** mm^2 | Average Pedis Area, Hours: 48 ([5]; 500 mg/kg p.o.): 9.0*** mm^2 | Average Pedis Area, Hours: 60 ([5]; 500 mg/kg p.o.): 10.0*** mm^2 | Toxicity Death ([5]; 500 mg/kg p.o.): 0/5 | Average Pedis Area, Hours: 0 ([5]; 1000 mg/kg p.o.): 6.5 mm^2 | Average Pedis Area, Hours: 12 ([5]; 1000 mg/kg p.o.): 8.8*** mm^2 | Toxicity Death ([5]; 1000 mg/kg p.o.): 5/6 | Average Pedis Area, Hours: 0 ([6]; 500 mg/kg p.o.): 6.8 mm^2

IC50 [3]: 11200 nM
Molecule: Cc1c(-c2ccc(-c3ccccc3F)cc2)nc2ccc(F)cc2c1C(=O)O [Brequinard]
IC50 [7]: 11200 ± 4000 nM | IC50 [8]: 56600 ± 22700 nM

IC50 ([3]; Homo sapiens, Lymphocyte): 28200 nM
Molecule: C[C@@H]1C[C@H]2[C@@H]3CCC4=CC(=O)C=C[C@]4(C)[C@@]3(F)[C@@H](O)C[C@]2(C)[C@@]1(O)C(=O)CO [Dexamethasone, reference compound]

IC50 [1]: 5480 ± 1240 nM | IC50 [2]: 12000 ± 510 nM
Molecule: C=CC(C)(C)[C@@]12Nc3ccccc3[C@]1(O)C[C@H]1C(=O)N3[C@@H](C[C@]4(O)c5ccccc5N[C@]34C(C)(C)C=C)C(=O)N12 [Gypsetin]

Molecule: C[C@]12CCC(=O)C=C1CC[C@@H]1[C@@H]2[C@@H](O)C[C@@]2(C)[C@H]1CC[C@]2(O)C(=O)CO [Hydrocortisone]
Average Pedis Area, Hours: 0 ([5]; 1% Cream, Skin): 6.9 mm^2 | Average Pedis Area, Hours: 24 ([5]; 1% Cream, Skin): 8.9*** mm^2 | Average Pedis Area, Hours: 48 ([5]; 1% Cream, Skin): 7.8*** mm^2 | Average Pedis Area, Hours: 60 ([5]; 1% Cream, Skin): 7.9*** mm^2 | Average Pedis Area, Hours: 12 ([6]; 1% Cream, Skin): 9.0*** mm^2 | Toxicity Death ([6]; 1% Cream, Skin): 0/5

Molecule: COc1c(C)c2c(c(O)c1C/C=C(\C)CCC(=O)O)C(=O)OC2 [MPA]
IC50 [7]: 95 ± 27 nM | IC50 [8]: 416 ± 210 nM

IC50 ([3]; Homo sapiens, Lymphocyte): 610 nM
Molecule: CO[C@H]1C[C@@H]2CC[C@@H](C)[C@@](O)(O2)C(=O)C(=O)N2CCCC[C@H]2C(=O)O[C@H]([C@H](C)C[C@@H]2CC[C@@H](O)[C@H](OC)C2)CC(=O)[C@H](C)/C=C(\C)[C@@H](O)[C@@H](OC)C(=O)[C@H](C)C[C@H](C)/C=C/C=C/C=C/1C [Rapamycine, reference compound]
